# pEC50: −log10 of the molar value.
# Tests used:
# NB4 cells [1] = experiment: NB4 cell maturation (morphology, NBT reduction, CD11c integrin expression); type: cell-based, human; conditions: for Induction of NB4 cell maturation/differentiation, agent alone: ATRA 1 μM, other agonists 0.2 μM, 8CPT-cAMP 100 μM, 72 h (NBT, morphology), 48 h (CD11c); for NB4 cell maturation in presence of 8CPT-cAMP: co-treatment with PKA agonist 8CPT-cAMP 100 μM
# Method: Morphological features of NB4 cells in response to treatments (after 72 h). […] Nitroblue tetrazolium enzymatic reduction in retinoid-treated NB4 cells (after 72 h; percent of positive cells).
# Cells and cultures. […] Essentially, cultures were established with log phase growing cells at concentration (10^5 ocell per ml) allowing exponential growth of untreated control cultures over 3 days without medium replenishment. […] Cultures were light-protected.
# Morphological and functional cell maturation analysis. Cell morphology was analyzed after May-Grünwald staining. […] Morphology analysis and NBT reaction were performed after 72 h of treatment. At least 300 cells were analyzed for each treated culture.
# Flow cytometry analysis of CD11c cell surface integrin. […] Briefly, after incubation (48 h), cells were washed in PBS and labeled with an anti-human CD11c FITC mouse monoclonal antibody (Becton-Dickinson). Cells were then washed twice in PBS and fixed in 1% paraformaldehyde/PBS solution. Cells were analyzed using a COULTER flow-cytometer.
# T47D = experiment: Lipid accumulation (Nile Red staining) in T47D breast cancer cells; type: cell-based, human; conditions: 7 days; for Increase of differentiation by addition of CPT-cAMP over RXR ligand alone: 1 μM RXR ligand plus 100 μM 8CPT-cAMP; for pEC50: RXR compound alone, Nile Red
# Method: Staining Solution: Stock Solution (1 mg Nile red and 1 ml acetone were mixed thoroughly and stored, chilled and protected from light).
# Staining. For Fluorescence Microscope, a drop of dye-glycerol solution was added to a slide and covered with a glass coverslip. After 5 minutes, the slide was viewed by fluorescence microscope, Excitation 450-500 nm, Emission>528 nm. For Flow Cytofluorometry, the medium was aspirated off from cells and washed with PBS two times (serum in the medium drained the dye out of the cells). Then the cells were trypsinized and washed with PBS to get rid of trypsin. The cells were spun down and resuspended in 1 ml PBS (1-2×10^6/ml). The stock dye was added directly to the cells suspension in PBS with 1:100 dilution, and incubated at room temperature for a minimal of 5 minutes, and the samples were analyzed immediately. For Fluorescence Spectra, the medium was removed from 96-well plates and the cells were washed once with PBS. […] Diluted dye in PBS (1:100 from stock) was added to the cells, incubated for 5 minutes, and the plate was read at Excitation 488nm with a 2-nm slit width, emission at 540 nm with a 20-nm slit width.
# Cells. Breast cancer cell line T47D was obtained from American Type Culture Collection, Manassas, Va.
# RARα-RXRα heterodimer = biological target: T1, RARα-RXRα heterodimer (Homo sapiens, UniProt P10276+P19793); experiment: Transient transfection, RARα-RXRα heterodimer activity on DR5-tk-CAT reporter
# T1 sequence (P10276 1-462): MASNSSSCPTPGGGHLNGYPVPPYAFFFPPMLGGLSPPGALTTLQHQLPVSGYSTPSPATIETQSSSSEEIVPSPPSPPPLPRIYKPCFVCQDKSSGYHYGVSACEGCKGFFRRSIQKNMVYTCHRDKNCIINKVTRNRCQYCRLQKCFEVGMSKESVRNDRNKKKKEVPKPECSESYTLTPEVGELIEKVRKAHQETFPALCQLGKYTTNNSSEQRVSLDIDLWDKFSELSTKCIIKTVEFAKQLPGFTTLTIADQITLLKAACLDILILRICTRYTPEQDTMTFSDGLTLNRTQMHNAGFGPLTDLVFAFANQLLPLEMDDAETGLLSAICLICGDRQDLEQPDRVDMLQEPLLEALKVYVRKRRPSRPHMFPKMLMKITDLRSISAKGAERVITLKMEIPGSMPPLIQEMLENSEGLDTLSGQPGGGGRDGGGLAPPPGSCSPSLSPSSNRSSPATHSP
# T1 sequence (P19793 1-462): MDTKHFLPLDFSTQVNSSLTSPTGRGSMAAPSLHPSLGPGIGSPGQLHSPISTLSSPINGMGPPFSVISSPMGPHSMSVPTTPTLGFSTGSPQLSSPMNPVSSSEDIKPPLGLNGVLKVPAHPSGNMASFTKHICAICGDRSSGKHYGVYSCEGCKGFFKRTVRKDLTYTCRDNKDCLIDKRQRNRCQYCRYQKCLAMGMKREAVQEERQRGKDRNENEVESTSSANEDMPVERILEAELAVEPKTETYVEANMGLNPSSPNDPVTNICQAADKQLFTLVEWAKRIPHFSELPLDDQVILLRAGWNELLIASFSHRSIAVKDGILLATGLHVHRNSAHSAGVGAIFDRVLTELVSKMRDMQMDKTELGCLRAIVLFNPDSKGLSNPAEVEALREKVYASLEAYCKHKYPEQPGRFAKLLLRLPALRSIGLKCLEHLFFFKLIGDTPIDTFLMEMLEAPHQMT
# NB4 cells [2] = experiment: Cytokine expression in NB4 cells by RNAse protection assay; type: cell-based, human; conditions: for G-CSF expression: agent alone, 0, 24, 48 h
# Method: (§1) Modulation of cytokine expression in NB4 cells was assessed by RNAse protection assays. […] For comparison the effect of vitamin D3 (“D3”) was studied also. […] The intact probes run on the same gel are shown on the left (L32 and GAPDH are the invariant internal controls used for calibration) and the positions of the protected fragments are indicated. […] Only the positions of the protected fragments are shown.
# (§2) RPA analysis. Total RNA was extracted with the Trizol reagent (Gibco BRL). The ribonuclease protection assay was performed according to the supplier's instructions (Pharmingen, San Diego, Calif.). […] RNA (4 μg) and 6×10^5 cpm of labeled probes were used for hybridization. After RNAse treatments, the protected probes were resolved on a 5% urea-polyacrylamide-bis-acrylamide gel.
# NB4-R2 cells = experiment: Cytokine expression in NB4-R2 cells by RNAse protection assay; type: cell-based, human
# Method: as §1, §2
smiles,measurement,setting,value
CC1(C)CC=C(c2ccc(-c3ccccc3)cc2)c2cc(/C=C/c3ccc(C(=O)O)cc3)ccc21 [Compound VI],Effect on Compound I-induced differentiation,"NB4 cells [1]; NB4 cells, antagonist 2 μM",abrogated
same,Inhibition of NB4 maturation induced by SR11237 plus 8CPT-cAMP,NB4 cells [1]; antagonist 2 μM,not inhibited
"Nc1ncnc2c1nc(Sc1ccc(Cl)cc1)n2[C@@H]1O[C@@H]2COP(=O)([O-])O[C@H]2[C@H]1O.[Na+] [Compound 8CPT-cAMP, 8-(4-Chlorophenylthio)-adenosine-3′,5′-cyclic monophosphate, sodium salt]","Induction of NB4 cell maturation/differentiation, agent alone",NB4 cells [1],did not exhibit any differentiating activity
same,"Lipid accumulation/differentiation, CPT-cAMP alone",T47D; 100 μM,No effect
C=C(c1ccc(C(=O)O)cc1)c1cc2c(cc1C)C(C)(C)CCC2(C)C [bexarotene],Increase of differentiation by addition of CPT-cAMP over RXR ligand alone,T47D,20%
same,pEC50,"T47D; Homo sapiens, T47D, 168 h",7.21
"C=C(c1ccc(C(=O)O)cc1)c1cc2c(cc1C)C(C)(C)CC=C2C(C)C [Compound V, 4-[1-[5,6-Dihydro-3,5,5-trimethyl-8-(1-methylethyl)-2-naphthalenyl]ethenyl]benzoic acid]","Induction of NB4 cell maturation/differentiation, agent alone",NB4 cells [1],did not exert any differentiative effect
same,NB4 cell maturation in presence of 8CPT-cAMP,NB4 cells [1],induced maturation with a potency similar to 9-cis RA
same,Activity with RAR-RXR heterodimers on a DR5-based reporter,RARα-RXRα heterodimer; agent alone,nearly inactive
same,Effect on ATRA-induced transactivation of DR5-based reporter,RARα-RXRα heterodimer; with ATRA,synergized with
CC1(C)CCC(C)(C)c2cc(C3(c4ccc(C(=O)O)cc4)OCCO3)ccc21 [SR11237],"Factor of synergy, G-CSF expression",NB4 cells [2]; SR11237 with 8CPT-cAMP,> 50 fold
same,G-CSF expression,NB4 cells [2],does not affect G-CSF expression
same,"SCF, IL8 and MCPI expression",NB4 cells [2]; agent on its own,induced
same,"Induction of NB4 cell maturation/differentiation, agent alone",NB4 cells [1],completely inactive
same,NB4 cell maturation in presence of 8CPT-cAMP,NB4 cells [1],induced full maturation
same,Increase of differentiation by addition of CPT-cAMP over RXR ligand alone,T47D,20%
same,pEC50,T47D,6.96
same,Transactivation of DR5-based reporter by coexpressed RAR and RXR in presence of the PKA agonist,RARα-RXRα heterodimer; with 8CPT-cAMP,did not observe any SR11237-induced transactivation
"CC1(C)C(=O)C(C)(C)c2cc(C(=O)Nc3ccc(C(=O)O)cc3)ccc21 [Compound I, 4-[[(2,3-Dihydro-1,1,3,3-tetramethyl-2-oxo-1H-inden-5-yl)carbonyl]amino]benzoic acid]","Induction of NB4 cell maturation/differentiation, agent alone",NB4 cells [1],induce maturation
same,Growth of NB4 cells,NB4 cells [1]; agent alone,growth inhibited
CC1(C)CC=C(c2cnc3ccccc3c2)c2cc(C(=O)Nc3ccc(C(=O)O)cc3)ccc21 [Compound II],Effect on Compound I-induced differentiation,"NB4 cells [1]; NB4 cells, antagonist 2 μM",abrogated
same,Effect on maturation induced by 9-cis RA,"NB4 cells [1]; NB4 cells, antagonist 2 μM",decreased dramatically
same,Inhibition of NB4 maturation induced by SR11237 plus 8CPT-cAMP,NB4 cells [1]; antagonist 2 μM,not inhibited
CN1c2ccc([N+](=O)[O-])cc2N=C(c2ccc(C(=O)O)cc2)c2cc3c(cc21)C(C)(C)CCC3(C)C [HX531],NB4 cell maturation in presence of 8CPT-cAMP,NB4 cells [1],No crosstalk
C=C1CC[C@H](O)C/C1=C/C=C1\CCC[C@]2(C)[C@@H]([C@H](C)CCCC(C)C)CC[C@@H]12 [vitamin D3],"Induction of NB4 cell maturation/differentiation, agent alone",NB4 cells [1],inactive on its own
same,NB4 cell maturation in presence of 8CPT-cAMP,NB4 cells [1],moderate granulocytic maturation
same,Granulocytic maturation relative to the effect of SR11237 in presence of the PKA agonist,"NB4 cells [1]; uM concentration, with 8CPT-cAMP",less than 20%
"CC1=C(/C=C/C(C)=C/C=C/C(C)=C/C(=O)O)C(C)(C)CCC1 [ATRA, all-trans retinoic acid]",IL8 and MCPI expression,NB4 cells [2]; agent alone,induced
same,M-CSF and IP10 expression,NB4 cells [2]; agent alone,induced
same,G-CSF expression,NB4 cells [2],incapable of stimulating G-CSF expression
same,"Induction of NB4 cell maturation/differentiation, agent alone",NB4 cells [1],induce maturation
same,"IP 10, MCP1 or M-CSF expression in resistant cells",NB4-R2 cells,unable to induce

# From patent US6624154B1, “Compositions and methods for treatment of hyperproliferative diseases” (Bristol-Myers Squibb Company, priority 1999, dated 2003)
